Assays:
human Fpn = target: T1, human Fpn (Homo sapiens, UniProt Q9NP59); experiment: Biophysical Ferroportin-Hepcidin Binding Assay (fluorescence polarization)
T1 construct: FLAG (C); made in house; host or cells: Pichia pastoris
T1 sequence (Q9NP59 1-571): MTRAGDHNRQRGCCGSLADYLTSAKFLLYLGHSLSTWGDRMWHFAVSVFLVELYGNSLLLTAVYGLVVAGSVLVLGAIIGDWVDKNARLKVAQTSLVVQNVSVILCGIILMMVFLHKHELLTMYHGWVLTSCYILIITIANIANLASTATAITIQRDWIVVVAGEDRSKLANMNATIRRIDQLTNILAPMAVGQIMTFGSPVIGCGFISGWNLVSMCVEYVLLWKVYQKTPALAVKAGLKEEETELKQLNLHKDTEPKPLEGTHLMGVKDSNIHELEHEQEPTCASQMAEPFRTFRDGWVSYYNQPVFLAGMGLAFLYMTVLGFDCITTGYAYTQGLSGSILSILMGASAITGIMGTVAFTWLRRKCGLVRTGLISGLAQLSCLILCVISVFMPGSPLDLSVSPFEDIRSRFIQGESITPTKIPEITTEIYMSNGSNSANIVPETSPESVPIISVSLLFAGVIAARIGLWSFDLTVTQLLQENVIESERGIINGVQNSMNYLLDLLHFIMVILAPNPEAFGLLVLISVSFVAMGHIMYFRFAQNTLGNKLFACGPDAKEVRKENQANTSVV
How it was run: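 Purified human Fpn (C-terminal FLAG tag, expressed in Pichia pastoris) at 1 μM final was incubated with 20 nM TMR-hepcidin and serially diluted compounds in duplicate for 90 min at room temperature. Binding inhibition was read as a dose-dependent fall in FP (mP), calculated from parallel and perpendicular fluorescence.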

human Fpn-GFP fusion = target: T2, human Fpn-GFP fusion (Homo sapiens, UniProt Q9NP59); experiment: Ferroportin Internalization and Degradation Assay (FACS); type: cell-based; details: read-out: EC50 ferroportin internalization and degradation; average of multiple measurements; Fpn-GFP MFI, HEK-293 cell line #354, FACS
T2 construct: expressed in transfected cells; host or cells: HEK-293 cell line #354 (derivative of HEK-293 Tet-ON Advanced, Clontech)
T2 sequence (Q9NP59 1-571): T1 sequence (Q9NP59 1-571)
Procedure: Growing HEK-293 #354 cells in doxycycline containing media induced expression of human Fpn-GFP fusion protein on the cell surface. […] Small molecular weight Fpn inhibitor compounds were tested for dose-dependent effects on the Fpn-GFP mean fluorescence intensity (MFI) on HEK-293 cell line #354, as described below. HEK #354 cells were harvested from ca. 80% confluent cultures, seeded at 0.6×10^6 (cells/ml in DMEM/F12 GlutaMAX™ medium (Invitrogen, Cat. 31331-028) containing 10% FBS (Clontech, Cat. 631106), 1% Penicillin-Streptomycin (Invitrogen, Cat. 15140-122), 200 μg/ml Hygromycin B (Invitrogen, Cat. 10687-010), Blasticidin 5 μg/ml, (Invitrogen, Cat. R210-01), 4 μg/ml doxycycline (Clontech, Cat. 631311), 50 μl per well of 384 well plates (Greiner; Cat. 781091) and grown at 37° C. with 5% CQ. After overnight incubation, 10 μl/well of dilution series of the test compounds were added in quadruplicates and plates were further incubated overnight at 37° C. with 5% CO2. Cells were washed once with FACS buffer (PBS containing 1% FBS, 2 mM EDTA and 0.05% NaN3), harvested in FACS buffer with 0.5 μg/ml propidium iodide (Sigma, Cat. P4864) and analyzed in a flow cytometer (CANTO™ II, BD Biosciences) equipped with high throughput sampler. Live HEK #354 cells were gated as propidium iodide negative population and analyzed for expression of Fpn-GFP.

naïve WT C57BL/6 mice = experiment: Hypoferremia in naïve mice; type: in vivo, mouse; details: injection of synthetic hepcidin in WT naïve mice (Rivera, 2005; FIG. 3A)
Procedure: Female C57BL/6 mice (Janvier, France) at age of 9 weeks were fed a standard diet (Harlan Provimi Kliba 3436) and treated per os (p.o.) with compounds or the corresponding amount of vehicle at a volume of 10 ml/kg body weight. Fpn inhibitors were formulated in 0.5% methylcellulose/water or 20% cremophor EL/water and dosed p.o. in mice at 10, 30 or 100 mg/kg body weight. Three hours later, mice were pre terminally anesthetized in isoflurane chambers and blood was collected by retro-orbital bleeding. Mice were sacrificed by cervical dislocation and spleens, livers and duodena were harvested and used for biomarker analysis. All experiments have been conducted in compliance with the license approved by the responsible veterinarian authorities. Serum was isolated by centrifugation of blood into gel-containing microtainers and serum iron was determined by the MULTIGENT Iron assay (Abbott Diagnostics, 6K95). Eight mice per group were used and one-way ANOVA with Bonferroni's multiple comparison test was performed to analyze the statistical differences between the experimental groups.

CC[C@H](C)[C@@H]1NC(=O)[C@@H](NC(=O)[C@@H](NC(=O)[C@@H]2CCCN2C(=O)[C@H](Cc2ccccc2)NC(=O)[C@H](Cc2c[nH]cn2)NC(=O)[C@@H](NC(=O)[C@@H](N)CC(=O)O)[C@@H](C)O)[C@@H](C)CC)CSSC[C@@H](C(=O)N[C@@H](CCCCN)C(=O)N[C@H](C(=O)O)[C@@H](C)O)NC(=O)[C@@H]2CSSC[C@@H]3NC(=O)[C@@H]4CSSC[C@H](NC(=O)[C@H](Cc5ccccc5)NC1=O)C(=O)N[C@@H](CSSC[C@H](NC(=O)[C@H](CCCCN)NC(=O)[C@H](CO)NC(=O)[C@H](CCCNC(=N)N)NC(=O)[C@H](Cc1c[nH]cn1)NC3=O)C(=O)NCC(=O)N[C@@H](CCSC)C(=O)N2)C(=O)NCC(=O)N4 [hepcidin, reference compound]
IC50 (human Fpn): 370 ± 67 nM | DC50 (human Fpn-GFP fusion): 4 ± 2 nM | reduction of serum iron levels from the vehicle control (naïve WT C57BL/6 mice): 40-50% | time of maximal effect on serum iron post treatment (naïve WT C57BL/6 mice): 3 to 4 h

— US10738041B2, “Ferroportin inhibitors” (Vifor (International) AG, priority 2015, dated 2020)
